# Assay results as given in patent publication US12201694B2, “Hydrogel compositions” (Hyderabad Eye Institute, priority 2018, dated 2025).
# Tests used:
# [1] = literature reference [19]; cited from earlier work
# [2] = system: C. albicans SC5314; test: Minimal inhibitory concentration (MIC), no visible growth after 16 h; type: cell-based, Candida albicans
# Experimental: (§1) C. albicans cells, laboratory strain SC5314 or ATCC90028, were cultured on solid BHI (Oxoid) medium at 37° C. for 24 hours and stored at 4° C. for up to one month. Prior to experiments, a colony of C. albicans was sub-cultured into liquid BHI medium overnight at 37° C. Overnight cultures of C.albicans were adjusted to an optical density at 600 nm of 0.1 and incubated with Amphotericin polymers, which were serially diluted 1:2 from 2500-2.44 μg/ml, for 16 hours in a 96 well plate. The concentration of polymer at which there was no visible growth was determined to be the MIC. C.albicans (Robin) ATCC200955, C.tropicalis ATCC200956, A.flavus ATCC16883 and F. keratoplasticum ATCC36031 were similarly cultured on solid Sabrauds (Oxoid) medium at 37° C. for 24 hours and stored at 4° C. for up to one month. Prior to experiments, colonies were sub-cultured into liquid Sabrauds medium overnight at 37° C. All liquid cultures were static apart from A.flavus which was incubated shaking at 100 rpm.
# [3] = system: C. albicans ATCC90028; test: as above; type: cell-based, Candida albicans
# Experimental: as §1
# [4] = system: F. keratoplasticum ATCC36031; test: Minimal inhibitory concentration (MIC); type: cell-based, Fusarium keratoplasticum; details: F. keratoplasticum ATCC 36031
# Experimental: as §1
# [5] = physiological pH; well known; cited from earlier work
# [6] = system: C. albicans ATCC200955; test: Minimal inhibitory concentration (MIC); type: cell-based, Candida albicans; details: C. albicans ATCC200955 (Amp-B non-sensitive)
# Experimental: as §1
# [7] = system: A. flavus ATCC16883; test: Minimal inhibitory concentration (MIC); type: cell-based, Aspergillus flavus; details: A. flavus ATCC 16883
# Experimental: as §1
# [8] = system: C. tropicalis ATCC200956; test: Minimal inhibitory concentration (MIC); type: cell-based, Candida tropicalis; details: C. tropicalis ATCC200956 (Amp-B non-sensitive)
# Experimental: as §1, with “Overnight cultures of C.albicans were adjusted to an optical density at 600 nm of 0.1 and incubated with Amphotericin polymers, which were serially diluted 1:2 from 2500-2.44 μg/ml, for 16 hours in a 96 well plate.” left out
# [9] = from weight MIC and molar density
smiles,measurement,setting,value
C[C@@H]1[C@H](O)[C@@H](C)/C=C/C=C/C=C/C=C/C=C/C=C/C=C/[C@H](O[C@@H]2O[C@H](C)[C@@H](O)[C@H](N)[C@@H]2O)C[C@@H]2O[C@](O)(C[C@@H](O)C[C@@H](O)[C@H](O)CC[C@@H](O)C[C@@H](O)CC(=O)O[C@H]1C)C[C@H](O)[C@H]2C(=O)O [Amphotericin B],MIC for amphotericin B,[1],4.68 to 150 µM
same,Weight based MIC,[2]; C. albicans SC5314,0.4 µg·mL
same,MIC against SC5314,"[2]; C. albicans SC5314, 16 hours",0.4 µg/mL
same,Molar MIC,"[2]; C. albicans SC5314, from weight MIC and molar density",500 µM
same,Weight based MIC,[3]; C. albicans ATCC90028,0.5 µg·mL
same,MIC against ATCC90028,"[3]; C. albicans ATCC90028, 16 hours",4 µg/mL
same,Molar MIC,"[3]; C. albicans ATCC90028, from weight MIC and molar density",4800 µM
same,Weight based MIC,[4],0.2 µg·mL
same,Molar MIC,[4]; [9],250 µM
same,solubility in water and saline solution,[5],insoluble
same,Weight based MIC,[6],>2500 µg·mL
same,Weight based MIC,[7],1.5 µg·mL
same,Molar MIC,[7]; [9],1800 µM
same,Weight based MIC,[8],>2500 µg·mL
